Test results from patent US20100317671A1, “XANTHINE-BASED CYCLIC GMP-ENHANCING RHO-KINASE INHIBITOR INHIBITS PHYSIOLOGICAL ACTIVITIES OF LUNG EPITHELIAL CELL LINE” (KAOHSIUNG MEDICAL UNIVERSITY, priority 2008, published 2010).

How the values were obtained:
MMP-9 [1] = assay: OVA-induced MMP-9 expression in lung tissue, asthma mice; assay type: in vivo, BALB/c mice; details: nebulization, 28-day experiment; western blotting and zymography
Protocol: The male BALB/c mice (20-23 g) are injected (i.p.) with OVA (5 mM, 30 mins), sensitized with OVA on day 1 and day 8 via i.p injection and activated by 2 mg aluminum hydroxide to which 2 μg OVA is absorbed. […] The asthmatic animals are divided into 5 groups, wherein the control group is only administered with saline spray and the remaining experimental groups are firstly administered with 1% OVA spray and then administered with the sprays of the related complex salts respectively as shown in Table 4. The inhibition of the expression of OVA-induced MMP-9 in lung tissue of BALB/c mice is measured.

NOx = NOx levels in BALF of OVA-sensitized and -challenged mice (Griess reagent); assay type: in vivo; details: 24 hrs after last OVA challenge; basal 65.4, OVA 162.8 μM
MMP-2 [2] = assay: Gelatin zymography of lung lavage, bleomycin mice; assay type: in vivo; details: for MMP-2 expression in lung lavage (zymography): day 7 or day 28, p<0.05; for Expression of MMP2 in lung lavage: lung inflammatory stage
Protocol: (§1) The activities of MMP-2 (FIGS. 7A and 8A) and MMP-9 (FIGS. 7B and 8B) in the lung lavage of mice on day 7 (FIG. 7) and day 28 (FIG. 8) are analyzed by zymography. The expression levels are minor in the normal control group. […] The expressions of MMP-2 and MMP-9 on day 7 are higher than that on day 28. […] It is seen that KMUPs have the effect of mitigating the inflammation.
(§2) The MMPs in the lung lavaga are measured by zymography. It is known that all of the MMP-1, MMP-2, MMP-3, MMP-7 and MMP-9 can degrade the gelatin, especially the MMP-2 and MMP-9. The activity of collagenase can be analyzed by SDS-PAGE gel adding by gelatin. After the collected bronchoalveolar lavage fluid (BALF) is electrophoreted, the SDS is removed with 2.5% (v/v) Triton X-100 and the activity of collagenase is recovered to degrade the gelatin. After reacting for a period of time, the commassie blue is utilized for staining and destaining so that a transparent band in the area having the collagenase activity can be seen owing to the gelatin is degraded.
(§3) The BALF is collected and the concentration thereof is measured by Bio-Rad DC protein assay. The absorption of BALF at 595 nm wavelength is measured by an ELISA reader with a BSA standard, and the concentration of the sample is measured according to the standard curve of this absorption value.
(§4) The sample is mixed with non sample buffer. After reacting under temperature for 10 mins, the separating gel containing 0.1% gelatin is utilized for electrophoresis analysis under low temperature. While the electrophoresis is finished, the gel is immersed in 2.5% Triton X-100 buffer to react under temperature for half hour. The 2.5% Triton X-100 buffer is exchanged to react under temperature for additional half hour. The gel is immersed in the developing buffer at 37° C. for 24 hrs, stained with staining buffer for 1 hr and destained with the destaining buffer, and the transparent band can be seen.

MMP-9 [3] = assay: Gelatin zymography of lung lavage, bleomycin mice; assay type: in vivo; details: for MMP-9 expression in lung lavage (zymography): day 7 or day 28, p<0.05; for Expression of MMP-9 in lung lavage: lung inflammatory stage
Protocol: as §1, §2, §3, §4

MMP-2 [4] = assay: Western blotting of lung tissue, bleomycin mice; assay type: in vivo; details: increased by bleomycin; p<0.01
Protocol: (§5) The lung tissue is analyzed by western blotting, and the MMP-2 and MMP-9 protein expressions are shown in both of the FIGS. 9 and 10. In the lung tissue, the MMP-2 expression is more significant than MMP-9. KMUP-1 and KMUP-5 may mitigate the expressions of MMP-2 and MMP-9 increased by administrating the bleomycin (p<0.01).
(§6) (1) The mice lung is immersed in the tissue lysis buffer and homogenized by an ultrasound sonicator on ice.
(§7) (2) The lysate is centrifuged at 13,000 g under 4° C. for 30 mins. The supernatant is collected and the protein concentration measurement adopts the“Bio-Rad DC protein assay”. After diluting the protein as specific concentrations, the sample buffer being one fourth of the sample volume is added thereinto for heating at 100° C. for 5 mins, and the sample is loaded into each wells of SDS-PAGE gel in turn. The running buffer is added into the electrophoresis tank for electrophoresis at 100 V, the voltage is adjusted as 200 V when the protein runs to the lower gel, and the electrophoresis is stopped when the SDS-PAGE dye enters the SDS-PAGE.
(§8) (3) The PVDF membrane is rinsed ith transfer buffer for use, and the protein on the SDS-PAGE is transferred to the PVDF membrane. The SDS-PAGE layer covering on the PVDF membrane is placed in a protein transfer tank immersed with the transfer buffer with the current set at 100V. After 80 mins, the transfer is completed and then the PVDF membrane is taken out.
(§9) (4) after cutting the band having an appropriate molecular weight on the PVDF membrane, an appropriate amount of the blocking buffer is added to for blocking under room temperature to remove the non-specific binding. Then, evenly covering the diluted primary antibody on the PVDF membrane to react under room temperature for 2 hrs, and the excessive antibodies are removed by T-TBS. Further, evenly covering the diluted secondary antibody to react under room temperature for 1 hr and finally washing the excessive antibodies with T-TBS. The enhanced chemiluminescence (ECL) agent is added for reacting for 1-90 secs. After exposing to a x-ray film, the reaction is completed.

MMP-9 [5] = assay: Western blotting of lung tissue, bleomycin mice; assay type: in vivo; details: increased by bleomycin; p<0.01
Protocol: as §5, §6, §7, §8, §9

MMP-9 [6] = assay: Short-term nebulization without OVA sensitization, lung tissue; assay type: in vivo, mice; details: 1.0~2.5 mM, 30 mins nebulization, no OVA
Protocol: (§10) Short-term KMUP-1 (5 mM, 30 min) nebulization and pretreatment with L-NAME (12 mM, […]) are accomplished using a previously described method. Aerosols were generated by ultrasonic nebulizer from day 21 to 27. Mice were sacrificed on day 28. Three different experiments were performed on cohorts of 7-14 mice per experimental condition.
(§11) Please refer to FIGS. 22(B) and 23(B), the changes of eNOS and MMP-9 expression by KMUP-1 (2.5 mM, 30 mins) are reversed by L-NAME-pretreatment (12 mM, 30 mins).

eNOS = assay: as above; assay type: in vivo, mice; details: 1.0~2.5 mM, 30 mins nebulization, no OVA
Protocol: as §10, §11

sGCα1 = assay: Western blotting of lung tissue, OVA-sensitized and -challenged mice; assay type: in vivo; details: nebulization, 28-day experiment
ICAM-1 = assay: as above; assay type: in vivo
From the text: (§12) Inhaled KMUP-1 can be absorbed into airway and blood flow to increase eNOS and down-regulate Rho-kinase expression by a cGMP-dependent pathway, protecting OVA-sensitized and challenged ICAM-1/VCAM-1 expression-associated cellular adhesion and migration activity of neutrophils.

VCAM-1 = assay: as above; assay type: in vivo
From the text: as §12

[7] = tested on: total cells, lymphocytes and eosinophils in BALF; assay: Cellular components in BALF, OVA-challenged mice; assay type: in vivo; details: 24 hrs after last OVA challenge; nebulization
From the text: Inflammation and remodeling of the bronchioles is associated with infiltration of blood-born lymphocytes, eosinophils and neutrophils, migrating into bronchial lumen. During the course of allergic disease, structural changes occur in the airways, referred to as remodeling. However, treatment with KMUP-1 prevents the migration of blood born cells into bronchiole.

| SMILES | MMP-9 expression increased by OVA sensitization (MMP-9 [1]) | Levels of NOx (nitrate+nitrite) in BALF (NOx) [µM] | MMP-2 expression in lung lavage (zymography) (MMP-2 [2]) | Expression of MMP2 in lung lavage (MMP-2 [2]) | MMP-9 expression in lung lavage (zymography) (MMP-9 [3]) | Expression of MMP-9 in lung lavage (MMP-9 [3]) | MMP-2 protein expression in lung tissue (western blotting) (MMP-2 [4]) | MMP-9 protein expression in lung tissue (western blotting) (MMP-9 [5]) | MMP-9 expression in lung tissues (MMP-9 [6]) | eNOS expression in lung tissues (eNOS) | sGCα1 expression reduced by OVA sensitization (sGCα1) | ICAM-1 expression (ICAM-1) | VCAM-1 expression (VCAM-1) | Increase in eosinophils in BALF [7] | Increase in lymphocytes in BALF [7] | Increase in total cells in BALF [7] |
| --- | --- | --- | --- | --- | --- | --- | --- | --- | --- | --- | --- | --- | --- | --- | --- | --- |
| Cn1c(=O)c2c(ncn2CCN2CCN(c3ccccc3Cl)CC2)n(C)c1=O [KMUP-1, 7-[2-[4-(2-chlorobenzene)piperazinyl]ethyl]-1,3-dimethylxanthine] | significantly reduced | 86.3 ± 17.3 | significantly decrease | efficiently decrease | significantly decrease | efficiently decrease | mitigate | mitigate | decreased | dose-dependently increased | prevented | suppressing | suppressing | significantly reduces | significantly reduces | significantly reduces |
| CCC(C)(C)C(=O)O[C@H]1C[C@@H](C)C=C2C=C[C@H](C)[C@H](CC[C@@H](O)C[C@@H](O)CC(=O)O)[C@H]21.Cn1c(=O)c2c(ncn2CCN2CCN(c3ccccc3Cl)CC2)n(C)c1=O [KMUP-5] | – | – | significantly decrease | efficiently decrease | significantly decrease | efficiently decrease | mitigate | mitigate | – | – | – | – | – | – | – | – |
